Values of other authors in patent publication US20110253140A1, “FORMULATIONS CONTAINING LARGE-SIZE CARRIER PARTICLES FOR DRY POWDER INHALATION AEROSOLS” (STC.UNM, priority 2008, published 2011).
Where two headings read alike, the source gives them in different places.

## CCCC1O[C@@H]2C[C@H]3[C@@H]4CCC5=CC(=O)C=C[C@]5(C)[C@H]4[C@@H](O)C[C@]3(C)[C@]2(C(=O)CO)O1 (some centres unmarked) [budesonide]
PIF 35 L/min
  lung deposition, % of the metered dose: 14.8%
Peak inspiratory flow rate (PIF) 60 L/min
  lung deposition, % of the metered dose: 27.7%
